Laboratory results reported in ChEMBL document CHEMBL4706648, “Antitubercular 2-Pyrazolylpyrimidinones: Structure-Activity Relationship and Mode-of-Action Studies” (J Med Chem, 2021).
Converted amounts (≈) assume the structure as drawn. The source made the active and inactive calls. The rule behind the calls is not given here.

Legend:
[1] = Aqueous solubility of compound at pH 7.4; type: physicochemical
[2] = test system: Mycobacterium tuberculosis; type: functional; conditions: H37Rv, 168 h, time 7 day
CHO = assay: Cytotoxicity against CHO cells assessed as reduction in cell viability by MTT assay; type: cell-based; conditions: Cricetulus griseus
[3] = Metabolic stability in rat liver microsomes assessed as parent compound remaining after 30 mins; type: ADME, Microsome; conditions: 0.5 h
[4] = Metabolic stability in human liver microsomes assessed as parent compound remaining after 30 mins; type: ADME, Microsome; conditions: 0.5 h
[5] = Kinetic solubility of compound at 200 uM at pH 7.4 measured after 20 hrs by HPLC-DAD analysis; type: physicochemical; conditions: buffer, pH 7.4, 20 h
[6] = Metabolic stability in mouse liver microsomes assessed as parent compound remaining after 30 mins; type: ADME, Microsome; conditions: 0.5 h
Vero = assay: Cytotoxicity against African green monkey Vero cells assessed as reduction in cell viability by MTT assay; type: cell-based; conditions: Chlorocebus sabaeus
[7] = Protein binding in human plasma assessed as unbound fraction at 5 uM incubated for 1 hr at 37 degreeC and measured after 4 hrs by ultracentrifugation based LC-MS/MS analysis; type: ADME, cell-free; conditions: 5 h
[8] = test system: Mycobacterium tuberculosis; assay: Antimycobacterial activity against wild-type Mycobacterium tuberculosis H37Rv assessed as inhibition of bacterial growth grown under middlebrook 7H9 medium incubated for 7 days by alamar blue broth microdilution method; type: functional; conditions: 168 h, time 7 day
[9] = test system: Mycobacterium tuberculosis; assay: Antimycobacterial activity against mmpL3 gene silenced Mycobacterium tuberculosis H37Rv assessed as inhibition of bacterial growth grown under middlebrook 7H9 medium incubated for 7 days by alamar blue broth microdilution method; type: functional, organism-based; conditions: time 7.0 day

| SMILES | solubility ([1]; buffer) | MIC [2] | IC50 (CHO) | solubility ([1]; aqueous, read-out: solubility) | other results |
| --- | --- | --- | --- | --- | --- |
| Cc1cc(Nc2ccncc2)n(-c2nc(C(F)(F)F)cc(=O)[nH]2)n1 | 20 µM (≈ 6.73 µg/mL) | > 50 µM | – | – | – |
| Cc1cc(Nc2ccc(N3CCOCC3)cn2)n(-c2nc(C(F)(F)F)cc(=O)[nH]2)n1 | 180 µM (≈ 75.8 µg/mL) | 2.3 µM (≈ 0.969 µg/mL) | 1.3 µM | – | – |
| Cc1cc(C)n(-c2nc(-c3ccccc3)c(C)c(=O)[nH]2)n1 | 120 µM (≈ 33.6 µg/mL) | 2 µM (≈ 0.561 µg/mL) | 25 µM | – | Stabilty [3]: 54%; Stabilty [4]: 65%; Kinetic_solubility [5]: 120 µM; Stabilty [6]: 45% |
| Cc1cc(N)n(-c2nc(-c3ccccc3)cc(=O)[nH]2)n1 | 180 µM (≈ 48.1 µg/mL) | – | – | – | IC50 (Vero): 9 µM |
| Cc1cc(-c2ccccc2)n(-c2nc(C(F)(F)F)cc(=O)[nH]2)n1 | – | 25 µM (≈ 8.01 µg/mL) | > 50 µM | 200 µM (≈ 64.1 µg/mL) | – |
| Cc1cc(C)n(-c2nc(-c3ccc(F)cc3)c(C(N)=O)c(=O)[nH]2)n1 | 110 µM (≈ 36 µg/mL) | > 50 µM | – | – | – |
| Cc1nn(-c2nc(C(F)(F)F)cc(=O)[nH]2)c(C)c1Br | – | 25 µM (≈ 8.43 µg/mL) | > 50 µM | 200 µM (≈ 67.4 µg/mL) | – |
| Cc1cc(C(=O)O)nn1-c1nc(-c2ccc(F)cc2)cc(=O)[nH]1 | 155 µM (≈ 48.7 µg/mL) | > 50 µM | – | – | – |
| Cc1cc(NCCO)n(-c2nc(C(F)(F)F)cc(=O)[nH]2)n1 | – | 37 µM (≈ 11.2 µg/mL) | – | 200 µM (≈ 60.6 µg/mL) | – |
| Cc1nn(-c2nc(C(F)(F)F)cc(=O)[nH]2)c(C)c1N1CCOCC1 | 160 µM (≈ 54.9 µg/mL) | 6.25 µM (≈ 2.15 µg/mL) | > 50 µM | – | Fu [7]: 0.03; Kinetic_solubility [5]: 160 µM |
| Cc1cc(O)nc(-n2nc(C)cc2C)n1 | 180 µM (≈ 36.8 µg/mL) | 30 µM (≈ 6.13 µg/mL) | – | – | IC50 (Vero): 325 µM |
| Cc1cc(C)n(-c2nc(C(=O)Nc3ccc(F)cc3)cc(=O)[nH]2)n1 | – | 25 µM (≈ 8.18 µg/mL) | > 50 µM | 200 µM (≈ 65.5 µg/mL) | – |
| Cc1cc(C)n(-c2nc(-c3ccc(F)cc3)c(C#N)c(=O)[nH]2)n1 | 30 µM (≈ 9.28 µg/mL) | > 50 µM | > 50 µM | – | – |
| Cc1cc(C)n(-c2nc(C)c(-c3ccccc3)c(=O)[nH]2)n1 | 190 µM (≈ 53.3 µg/mL) | 9 µM (≈ 2.52 µg/mL) | 9 µM | – | – |
| Cc1nc(C)n(-c2nc(-c3ccccc3)cc(=O)[nH]2)n1 | 130 µM (≈ 34.7 µg/mL) | > 125 µM | > 50 µM | – | – |
| Cc1cc(C)n(-c2nc(-c3cccnc3)cc(=O)[nH]2)n1 | – | 50 µM (≈ 13.4 µg/mL) | > 50 µM | 200 µM (≈ 53.5 µg/mL) | – |
| Cc1cc(C)n(-c2nc(-c3ccc(S(C)(=O)=O)cc3)cc(=O)[nH]2)n1 | 8 µM (≈ 2.76 µg/mL) | > 50 µM | > 50 µM | – | – |
| O=c1cc(-c2ccccc2)nc(-n2cccn2)[nH]1 | 190 µM (≈ 45.3 µg/mL) | 50 µM (≈ 11.9 µg/mL) | > 50 µM | – | – |
| Cc1cc(C)n(-c2nc(-c3ccc(F)cc3)cc(=O)[nH]2)n1 | 35 µM (≈ 9.95 µg/mL) | 1.2 µM (≈ 0.341 µg/mL) | 4 µM | – | – |
| Cc1cc(C)n(-c2nc(-c3ccccc3)cc(=O)n2C)n1 | – | > 50 µM | – | 200 µM (≈ 56.1 µg/mL) | IC50 (Vero): 357 µM |
| Cc1cc(C)n(-c2nc(-c3ccc(F)cc3)c(C(=O)O)c(=O)[nH]2)n1 | 190 µM (≈ 62.4 µg/mL) | > 50 µM | > 50 µM | – | – |
| CNC(=O)c1ccc(-c2cc(=O)[nH]c(-n3nc(C)cc3C)n2)cc1 | 70 µM (≈ 22.6 µg/mL) | > 50 µM | > 50 µM | – | – |
| Cc1cc(C)n(-c2nc(-c3ccc(N4CCOCC4)cc3)cc(=O)[nH]2)n1 | 40 µM (≈ 14.1 µg/mL) | > 125 µM | – | – | – |
| Cc1cc(Nc2ccc(C(=O)N(C)C)cc2)n(-c2nc(C(F)(F)F)cc(=O)[nH]2)n1 | – | > 50 µM | – | 200 µM (≈ 81.3 µg/mL) | – |

| SMILES | solubility ([1]; buffer) | MIC [2] | IC50 (CHO) | solubility ([1]; aqueous, read-out: solubility) | other results |
| --- | --- | --- | --- | --- | --- |
| CCc1cc(C)nn1-c1nc(C(F)(F)F)cc(=O)[nH]1 | – | 12 µM (≈ 3.27 µg/mL) | 108 µM | 200 µM (≈ 54.4 µg/mL) | – |
| Cc1cc(NCCN(C)C)n(-c2nc(C(F)(F)F)cc(=O)[nH]2)n1 | – | 58 µM (≈ 19.2 µg/mL) | – | 200 µM (≈ 66.1 µg/mL) | – |
| Cn1ccnc1-c1nc(-c2ccccc2)cc(=O)[nH]1 | – | 20 µM (≈ 5.05 µg/mL) | 4 µM | 200 µM (≈ 50.5 µg/mL) | – |
| COCCNc1cc(C)nn1-c1nc(C(F)(F)F)cc(=O)[nH]1 | – | 2 µM (≈ 0.635 µg/mL) | 17 µM | 200 µM (≈ 63.5 µg/mL) | MIC [8]: 1.2 µM (≈ 0.381 µg/mL); Activity [9]: Active |
| COc1cc(-c2ccccc2)nc(-n2nc(C)cc2C)n1 | – | > 50 µM | > 50 µM | 200 µM (≈ 56.1 µg/mL) | – |
| Cc1cc(=O)n(-c2nc(-c3ccccc3)cc(=O)[nH]2)[nH]1 | – | > 125 µM | – | 190 µM (≈ 51 µg/mL) | – |
| Cc1cc(N)n(-c2nc(C(F)(F)F)cc(=O)[nH]2)n1 | – | 20 µM (≈ 5.18 µg/mL) | 120 µM | 200 µM (≈ 51.8 µg/mL) | – |
| Nc1cc(C2CC2)nn1-c1nc(C(F)(F)F)cc(=O)[nH]1 | 10 µM (≈ 2.85 µg/mL) | 25 µM (≈ 7.13 µg/mL) | 24 µM | – | – |
| Cc1cc(Nc2ccc(C#N)cc2)n(-c2nc(C(F)(F)F)cc(=O)[nH]2)n1 | 75 µM (≈ 27 µg/mL) | 9.4 µM (≈ 3.39 µg/mL) | 20 µM | – | – |
| Cc1cc(C)n(-c2cc(-c3ccccc3)cc(=O)n2C)n1 | – | > 50 µM | > 50 µM | 185 µM (≈ 51.7 µg/mL) | – |
| Cc1nn(-c2nc(C(F)(F)F)cc(=O)[nH]2)c(C)c1-c1cccnc1 | 195 µM (≈ 65.4 µg/mL) | > 50 µM | – | – | – |
| Cc1cc(Nc2ccc(F)cc2F)n(-c2nc(C(F)(F)F)cc(=O)[nH]2)n1 | – | 0.3 µM (≈ 0.111 µg/mL) | 8 µM | < 5 µM | – |
| Cc1cc(C2CC2)n(-c2nc(C(F)(F)F)cc(=O)[nH]2)n1 | 160 µM (≈ 45.5 µg/mL) | 12 µM (≈ 3.41 µg/mL) | 78 µM | – | – |
| Cc1cc(NC2CCOCC2)n(-c2nc(C(F)(F)F)cc(=O)[nH]2)n1 | 50 µM (≈ 17.2 µg/mL) | 1.56 µM (≈ 0.536 µg/mL) | 18 µM | – | Stabilty [3]: > 99%; Stabilty [4]: > 99%; Fu [7]: 0.014; Kinetic_solubility [5]: 50 µM; Stabilty [6]: 93% |
| Cc1cc(C)n(-c2cc(=O)cc(-c3ccccc3)[nH]2)n1 | 120 µM (≈ 31.8 µg/mL) | > 50 µM | > 50 µM | – | – |
| Cc1cc(C)n(-c2nc(-c3ccncc3)cc(=O)[nH]2)n1 | 180 µM (≈ 48.1 µg/mL) | 9 µM (≈ 2.41 µg/mL) | > 50 µM | – | – |
| Cc1cc(C(=O)N(C)C)nn1-c1nc(-c2ccc(F)cc2)cc(=O)[nH]1 | 65 µM (≈ 22.2 µg/mL) | > 50 µM | – | – | – |
| CC(=O)Nc1cc(C)nn1-c1nc(-c2ccccc2)cc(=O)[nH]1 | 150 µM (≈ 46.4 µg/mL) | 6 µM (≈ 1.86 µg/mL) | – | – | MIC [8]: 27 µM (≈ 8.35 µg/mL); IC50 (Vero): 35 µM; Activity [9]: Active |
| CCOc1cc(C)nn1-c1nc(C(F)(F)F)cc(=O)[nH]1 | 120 µM (≈ 34.6 µg/mL) | 25 µM (≈ 7.21 µg/mL) | > 50 µM | – | – |
| Cc1cc(C)n(-c2nc3ccccc3c(=O)[nH]2)n1 | 150 µM (≈ 36 µg/mL) | 3 µM (≈ 0.721 µg/mL) | 6 µM | – | – |
| CCNc1cc(C)nn1-c1nc(C(F)(F)F)cc(=O)[nH]1 | 85 µM (≈ 24.4 µg/mL) | 6.25 µM (≈ 1.8 µg/mL) | 8 µM | – | – |
| Cc1cc(C)n(-c2nc(-c3ccc(NS(C)(=O)=O)cc3)cc(=O)[nH]2)n1 | 20 µM (≈ 7.19 µg/mL) | > 125 µM | > 50 µM | – | – |
| Cc1cc(C)n(-c2cc(-c3ccccc3)nc(=O)[nH]2)n1 | 30 µM (≈ 7.99 µg/mL) | 2 µM (≈ 0.533 µg/mL) | 10 µM | – | – |
| Cc1cc(CN(C)C)nn1-c1nc(C(F)(F)F)cc(=O)[nH]1 | – | > 50 µM | – | 200 µM (≈ 60.3 µg/mL) | – |
